In PubChem BioAssay (NCI):
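Exposure lasted 48 hours, with cells grown in 96-well plates and compounds tested at five concentrations. GI50 marks 50% less growth. TGI: concentration producing complete growth inhibition.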

What was measured:
Test in all cases: DTP human tumour cell line panel, 48 h
CAKI-1 renal = test system: CAKI-1 renal
CCRF-CEM leukemia = test system: CCRF-CEM leukemia
LOX IMVI melanoma = test system: LOX IMVI melanoma
M14 melanoma = test system: M14 melanoma
NCI-H460 lung = test system: NCI-H460 lung
NCI/ADR-RES ovarian = test system: NCI/ADR-RES ovarian
OVCAR-8 ovarian = test system: OVCAR-8 ovarian
RPMI-8226 leukemia = test system: RPMI-8226 leukemia
SK-MEL-2 melanoma = test system: SK-MEL-2 melanoma
TK-10 renal = test system: TK-10 renal

Compound	GI50 (CAKI-1 renal) [µM]	TGI (CAKI-1 renal) [µM]	GI50 (CCRF-CEM leukemia) [nM]	TGI (CCRF-CEM leukemia) [µM]	GI50 (LOX IMVI melanoma) [nM]	TGI (LOX IMVI melanoma) [µM]	GI50 (M14 melanoma) [nM]	TGI (M14 melanoma) [µM]	GI50 (NCI-H460 lung) [µM]	TGI (NCI-H460 lung) [µM]	GI50 (NCI/ADR-RES ovarian) [µM]	TGI (NCI/ADR-RES ovarian) [µM]	GI50 (OVCAR-8 ovarian) [µM]	TGI (OVCAR-8 ovarian) [µM]	GI50 (RPMI-8226 leukemia) [µM]	TGI (RPMI-8226 leukemia) [µM]	GI50 (SK-MEL-2 melanoma) [µM]	TGI (SK-MEL-2 melanoma) [µM]	GI50 (TK-10 renal) [µM]	TGI (TK-10 renal) [µM]
CC1=C(C(=O)Nc2ccc(F)c(Cl)c2)C(c2ccccc2Cl)NC(=S)N1 (centres undefined)	37	> 50	> 50000	> 50	15100	> 50	34900	> 50	23.7	> 50	18	49.1	42.7	> 50	38.3	> 50	26.8	> 50	48.8	> 50
Cn1nccc1Nc1nccc(-c2cc3c(s2)C(C)(C)N(CCN2CCOCC2)C3=O)n1	6.66	> 100	23400	> 100	734	> 100	312	> 37.4	21.4	> 100	56	> 100	24.3	> 100	23.3	> 100	0.402	6.74	1.31	> 100
O=C(CN1CCN(c2ncnc3ccccc23)CC1)Nc1ccc(Cl)cc1C(=O)c1ccccc1Cl	1.46	7.01	791	> 43.8	207	0.471	919	2.88	0.598	11.6	3.12	16.3	1.28	> 30.9	0.561	> 22.2	0.723	2.67	0.501	4.44
COc1cc(O)c2c(O)c3c(c4c2c1[C@]1(C4)C(C)=CCCC1(C)C)[C@H](O)[C@@]1(O)CC(=O)C(C(N)=O)=C(O)[C@@]1(O)C3=O		0.972		0.185		1.71		1.58		0.664		1.5		1.73		1.18		0.695		1.18
O=C(Nc1ccccc1O)c1cccc(NC2=C(Cl)C(=O)N(Cc3ccccc3)C2=O)c1	5.12	12.7	< 17.9	3.85	1620	3.6	4350	11.3	4.22	14.9	3.35	11.8	2.06	4.7	0.778	3.4	6.07	24.1	4.69	13.4
COc1ccccc1OCC(=O)Nc1sc2c(c1C(N)=O)CCC2	> 100	> 100	> 100000	> 100	> 100000	> 100	> 100000	> 100	> 100	> 100	> 100	> 100	12.7	> 100	> 100	> 100		68	> 100	> 100
COc1ccc(CCN2C(=O)C=CC2=O)cc1OC		27.4		2.93		36.9		24.1		46.8		74.5		44.1		3.18		14.8		33.2
N#C/C(=C\c1ccc(-c2ccc(Cl)cc2)o1)C(=O)Nc1ncc(Cc2ccc(Cl)cc2)s1	1.63	3.46	2210	> 100	2620	7.55	2040	6.08	0.983	2.46	1.87	6.31	1.81	5.76	4.45	> 100	3.26	12.9	2	3.71
O=C1NN(c2ccc(C(=O)O)cc2)C(=O)/C1=C\c1ccc([N+](=O)[O-])o1	16.1	31.1	22700	61.8	11100	31.2	28600	88	> 100	> 100	89.3	> 100	51.1	> 100	30.6	83.8	83.1	> 100	25.5	66.8
COc1cc(C(=O)c2ccc3c(c2)OCO3)cc(OC)c1OC	1.88	> 27.4	2460	> 75.3	6690	> 100	1200	> 100	2.55	> 100	0.987	> 100	5.55	> 100	2.64	> 42	2.53	> 100	4.44	> 100
